The nature of experiment [1]: Fe2+ chelating activity of the compound incubated for 5 mins prior to ferrozine-addition measured after 10 mins by spectrophotometry. The experiment is classed as functional. The arrangement: concentration or dose not given beside the values.
The subject of experiment [2] is A549. Description: Antiproliferative activity against human A549 cells after 48 hrs by MTS assay. In kind it is functional, cell-based. As to conditions: A549, 48 h. For orientation: Tetrazolium dyes change colour on reduction, which living cells bring about.
Experiment [3] relates to DU-145. The experiment can be described thus: Antiproliferative activity against human DU145 cells after 48 hrs by MTS assay. In kind it is functional, cell-based. The conditions noted are these: DU-145, 48 h.
The test system of experiment [4] is SK-MEL-5. The experiment can be described thus: Antiproliferative activity against human SK-MEL-5 cells after 48 hrs by MTS assay. The experiment is classed as functional, cell-based. As to conditions: SK-MEL-5, 48 h.
Experiment [5] deals with BXPC-3. Description: Antiproliferative activity against human BxPC3 cells after 48 hrs by MTS assay. In kind it is functional, cell-based. As to conditions: BXPC-3, 48 h.
The subject of experiment [6] is HepG2. Description: Antiproliferative activity against human HepG2 cells after 48 hrs by MTS assay. In kind it is functional, cell-based. The conditions noted are these: HepG2, 48 h.
In experiment [7] the test system is HT-29. The experiment can be described thus: Antiproliferative activity against human HT-29 cells after 48 hrs by MTS assay. The experiment is classed as functional, cell-based. The conditions noted are these: HT-29, 48 h.
Experiment [8] relates to MCF7. The experiment can be described thus: Antiproliferative activity against human MCF7 cells after 48 hrs by MTS assay. In kind it is functional, cell-based. The conditions noted are these: MCF7, 48 h.
Experiment [9] deals with MDA-MB-231. Description: Antiproliferative activity against human MDA-MB-231 cells after 48 hrs by MTS assay. In kind it is functional, cell-based. The conditions noted are these: MDA-MB-231, 48 h.

Where a name gives a salt, the structure may show the parent alone.

`CC(=O)O[C@@H]1[C@@H](OC(C)=O)[C@@H](O)[C@H](Oc2c(-c3ccc(O)cc3)oc3cc(O)cc(O)c3c2=O)O[C@H]1C` gave an Activity in experiment [1] of 55.4%.
With `CC(=O)O[C@@H]1[C@@H](O)[C@@H](O)[C@H](Oc2c(-c3ccc(O)cc3)oc3cc(O)cc(O)c3c2=O)O[C@H]1C`, the IC50 in experiment [2], in experiment [3], in experiment [4], in experiment [5], in [6] and in [7] was more than 150 µM each time. The IC50 in [8] and in experiment [9] was more than 150 µM throughout. The Activity in [1] is 29.1%.
In turn, `CC(=O)O[C@@H]1[C@@H](O)[C@H](C)O[C@@H](Oc2c(-c3ccc(O)cc3)oc3cc(O)cc(O)c3c2=O)[C@@H]1OC(C)=O` displayed an Activity in experiment [1] of 52.2%.
With `CC(=O)O[C@@H]1[C@@H](O)[C@@H](O)[C@H](Oc2c(-c3ccc(O)cc3)oc3cc(O)c(-c4c(O)cc(O)c5c(=O)c(O[C@@H]6O[C@@H](C)[C@H](OC(C)=O)[C@@H](O)[C@H]6O)c(-c6ccc(O)cc6)oc45)c(O)c3c2=O)O[C@H]1C`, the Activity in [1] was determined as 87.4%.
For `O=c1c(O)c(-c2ccc(O)cc2)oc2cc(O)cc(O)c12`, in experiment [1], the Activity stood at 12.1%.
With `CC(=O)O[C@@H]1[C@@H](O)[C@@H](OC(C)=O)[C@H](Oc2c(-c3ccc(O)cc3)oc3cc(O)cc(O)c3c2=O)O[C@H]1C`, the IC50 – broadly, the concentration that inhibits the measured activity by half – was more than 150 µM in experiment [2]; more than 150 µM in experiment [3]; more than 150 µM in experiment [4]; 113 µM in experiment [5]; more than 150 µM in experiment [6]; more than 150 µM in experiment [7]. Further, the IC50 in experiment [8] and in experiment [9] was more than 150 µM in each case. The compound further came in with an Activity in experiment [1] of 49.1%.
As for `COc1cc(/C=C/C(=O)CC(=O)/C=C/c2ccc(O)c(OC)c2)ccc1O` [CURCUMIN], the IC50 came out at 62.6 µM in experiment [2]; 38.2 µM in experiment [3]; 50.4 µM in experiment [4]; 11.4 µM in experiment [5]; 59.4 µM in experiment [6]; 15.9 µM in [7]. Also, the IC50 in experiment [8] worked out at 65.2 µM; in experiment [9], 64.7 µM. The Activity in experiment [1] was found to be 37.9%.
On to `CC[C@]1(O)C[C@@H]2CN(CCc3c([nH]c4ccccc34)[C@@](C(=O)OC)(c3cc4c(cc3OC)N(C)[C@H]3[C@@](O)(C(=O)OC)[C@H](OC(C)=O)[C@]5(CC)C=CCN6CC[C@]43[C@@H]65)C2)C1` [VINBLASTINE SULFATE], for which the IC50 was 2.36 µM in experiment [2]; 4.25 µM in experiment [3]; 1.74 µM in [4]; 1.13 µM in experiment [5]; 0.16 µM in experiment [6]; 11.2 µM in experiment [7]. Also, the IC50 in [8] is 24.1 µM; in experiment [9], 31.5 µM.
Take `COc1cc(/C=C/C(O)=C/C(=O)/C=C/c2ccc(O)cc2)ccc1O` [DEMETHOXYCURCUMIN]: the IC50 is 74.1 µM in experiment [2]; 48.1 µM in experiment [3]; 61.4 µM in [4]; 24.1 µM in experiment [5]; 80 µM in experiment [6]; 19.4 µM in experiment [7]. In addition, the results for the IC50 in experiment [8] and in experiment [9] were 75.3 µM and 87.5 µM, respectively. Besides, the Activity in [1] was found to be 50.9%.

The values are drawn from ChEMBL document CHEMBL2046439, “Spectaflavoside A, a new potent iron chelating dimeric flavonol glycoside from the rhizomes of Zingiber spectabile Griff” (Bioorg Med Chem Lett, 2012).
